Test results reported in patent US20050267182A1, “Urea derivatives as FLT-3 modulators” (Ambit Biosciences Corporation, priority 2003, published 2005).

Assays:
MV4,11 cells = assay: FLT3 assay using MV4,11 cells (cellular proliferation, MTS); format: cell-based, human; details: cell assay code CS0001; for IC50: Homo sapiens, MV4-11
Experimental: The ability of FLT3 kinase inhibitors to inhibit cellular proliferation was also examined. MV4:11 was a cell line derived from a patient with acute myelogenous leukemia.
FLT3 Assay Using MV4,11 Cells
MV4,11 cells were grown in an incubator @ 37° C. in 5% CO2 in Medium 2 (RPMI, 10% FBS, 4 mM glutamine, Penn/Strep). The cells were counted daily and the cell density was kept between 1e5 and 8e5 cells/ml.
Day One: Enough cells were harvested for experiments to be conducted in 50 ml conical tubes. The harvested cells were spun at 500 g for 5 min at 4° C., the supernatant was then aspirated and the cells were resuspended in the starting volume of 1×PBS. The cells were again spun at 500 g for 5 min at 4° C. and the supernatant again aspirated. The cells were then resuspended in medium 3 (DMEM w/ glut, 10% FBS, Penn/Strep) to a density of 4e5 cells/ml and incubated (37° C. in 5% CO2 O/N.
Day Two: The cells were counted and enough medium 3 was added to decrease density to 2e5 cells/ml. 50 ul (10,000 cells) was aliquoted into each well of a 96 well optical plate using multichannel pipetman. The compound plate was then set up by aliquoting 3 μl of negative control (DMSO) into column 1 of a 96 well 300 ul polypropylene plate, aliquoting 3 μt of positive control (10 mM AB20121) into column 12 of plate, and aliquoting 3 μl of appropriate compounds from serial dilutions into columns 2-11. To each well, 150 μl of Medium 3 was added and 50 μl of compound/medium mixture from compound plate into rows of optical plate in duplicate. The cells were then incubated @ 37° C. in 5% CO2 for 3 days.
Day Five: MTS was thawed in a H2O bath. 20 μl of MTS was added to each well of optical plate and the cells were incubated (37° C. in 5% CO2 for 2 hours. The plate was then placed on a plate shaker for 30 seconds on high speed.

FLT3 = target: T1, FLT3 (Homo sapiens, UniProt P36888); assay: Binding constant (Kd) measurement, phage-displayed kinase competition binding assay; details: for Kd / Binding Assay: FLT3(DKIN): FLT3(DKIN) construct; for Binding Assay: FLT3(JMminus): FLT3(JMminus) construct
T1 construct: FLT3(DKIN); made in house
T1 sequence (P36888 610-943 limits assumed): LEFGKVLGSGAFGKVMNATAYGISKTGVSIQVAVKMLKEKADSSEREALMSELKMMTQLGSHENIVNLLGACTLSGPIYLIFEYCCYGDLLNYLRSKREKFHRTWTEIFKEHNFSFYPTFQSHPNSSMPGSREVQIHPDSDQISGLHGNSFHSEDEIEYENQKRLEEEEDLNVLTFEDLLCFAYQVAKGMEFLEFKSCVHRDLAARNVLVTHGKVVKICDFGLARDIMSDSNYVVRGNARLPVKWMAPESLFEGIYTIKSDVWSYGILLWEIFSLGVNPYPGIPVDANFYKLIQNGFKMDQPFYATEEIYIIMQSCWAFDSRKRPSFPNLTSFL
From the text: Binding Constant (Kd) Measurements for Small-Molecule-Kinase Interactions
The term “ND” represents non-determined values.

SMILES	Cell Assay: CS0001:IC50 (MV4,11 cells)	Kd (FLT3) [µM]	Binding Assay: FLT3(DKIN) (FLT3)	IC50 (MV4,11 cells) [µM]	Binding Assay: FLT3(JMminus) (FLT3)
CC(=O)c1c(NC(=O)Nc2ccc(Cl)c(Cl)c2)sc2c1CCCC2 [Compound Z56]	+ + +	> 10	–	–	–
Cc1cccnc1-c1noc(-c2ccc(NC(=O)Nc3cc(C(C)(C)C)on3)cc2)n1 [Compound P4]	+ + + +	–	+ + + +	–	–
Cc1ncccc1C(=O)Nc1ccc(NC(=O)Nc2cc(C(C)(C)C)on2)cc1 [Compound N145]	+ + +	–	+ + + +	–	–
CCOc1ccc(NC(=O)Nc2cc(C(C)(C)C)on2)cc1 [Compound G20]	+ + + +	–	+ + + +	–	–
CC(C)(C)c1cc(NC(=O)Nc2ccc(NC(=O)Cc3ccccc3)cc2)no1 [Compound N35]	+ +	–	+ + +	–	–
C=CCOc1ccc(NC(=O)Nc2cc(C(C)(C)C)no2)cc1 [Compound G32]	+ + + +	–	+ + + +	–	–
Cc1nccn1CCOc1ccc(NC(=O)Nc2cc(C(C)(C)C)on2)cc1 [Compound G51]	+ + +	–	+ + + +	–	–
CC(C)(C)c1cc(NC(=O)Nc2ccc(NC(=O)c3ccc(SC(F)(F)F)cc3)cc2)no1 [Compound N33]	–	–	+ + +	> 10	–
CC(C)(C)c1cc(NC(=O)Nc2ccc(NC(=O)c3c4ccccc4nc4ccccc34)cc2)no1 [Compound N148]	+ +	–	+ + +	–	–
Cn1nc(-c2ccccc2)c(C(=O)Nc2ccc(NC(=O)Nc3cc(C(C)(C)C)on3)cc2)c1Cl [Compound N11]	+ +	–	+ +	–	–
CC(C)(C)c1cc(NC(=O)Nc2ccc(NC(=O)c3nnsc3Sc3ccc(C(F)(F)F)cc3)cc2)no1 [Compound N179]	+ + +	–	–	–	+ + +
CC(C)(C)c1cc(C(=O)Nc2ccc(NC(=O)Nc3cc(C(C)(C)C)on3)cc2)n(-c2ccccc2)n1 [Compound N78]	+ + +	–	–	–	+ + +
CC(C)(C)c1cc(NC(=O)Nc2ccc(NC(=O)c3ncc[nH]3)cc2)no1 [Compound N13]	+ + + +	–	+ + + +	–	–
CC1CN(CCOc2ccc(NC(=O)Nc3cc(C(C)(C)C)on3)cc2)CCN1 (centres unmarked) [Compound G46]	+ +	–	+ +	–	–
CC(C)(C)c1cc(NC(=O)Nc2ccc(NC(=O)c3cccnc3)cc2)co1 [Compound N1]	+ + +	–	+ + + +	–	–
CC(C)(C)c1cc(NC(=O)Nc2ccc(NC(=O)c3csc(Cc4cccc(C(F)(F)F)c4)n3)cc2)no1 [Compound N180]	+ + +	–	–	–	+ + + +
CC(C)(C)c1cc(NC(=O)Nc2ccc(NC(=O)c3cccc(SC(F)F)c3)cc2)no1 [Compound N25]	+ + +	–	+ + + +	–	–
COc1cccc(COc2ccc(NC(=O)Nc3cc(C(C)(C)C)on3)cc2)c1 [Compound G13]	+ + + +	–	+ + + +	–	–
CC(C)(C)c1cc(NC(=O)Nc2ccc(OCc3ccc(C(=O)c4ccccc4)cc3)cc2)no1 [Compound G9]	+ + +	–	+ + + +	–	–
CC(C)(C)c1cc(NC(=O)Nc2ccc(NC(=O)c3csnn3)cc2)no1 [Compound N14]	+ + +	–	+ + + +	–	–
CC(C)(C)c1cc(NC(=O)Nc2ccc(NC(=O)C3CCNCC3)cc2)no1 [Compound N150]	–	–	+ + +	> 10	–
Cc1noc(-c2ccc(NC(=O)Nc3cc(C(C)(C)C)on3)cc2)n1 [Compound P9]	+ + +	–	+ + + +	–	–

SMILES	Cell Assay: CS0001:IC50 (MV4,11 cells)	Kd (FLT3) [µM]	Binding Assay: FLT3(DKIN) (FLT3)	IC50 (MV4,11 cells) [µM]	Binding Assay: FLT3(JMminus) (FLT3)
Cc1ccc(NC(=O)c2ccc(NC(=O)Nc3cc(C(C)(C)C)on3)cc2)cc1 [Compound N84]	+ + + +	–	+ + + +	–	–
Cc1nc(N)cc(Nc2ccc(NC(=O)Nc3cc(C(C)(C)C)on3)cc2)n1 [Compound O10]	+ + +	–	+ + + +	–	–
Cn1nc(C(C)(C)C)cc1NC(=O)Nc1ccc(OCc2ccccc2)cc1 [Compound H2]	+ + + +	–	+ + + +	–	–
CC(C)(C)c1cc(NC(=O)Nc2ccc(NC(=O)c3ccc(-n4cc(-c5ccncn5)cn4)cc3)cc2)no1 [Compound N76]	+ + +	–	–	–	+ + +
Cc1sc(NC(=O)Nc2ccc(Cl)cc2)c(C(N)=O)c1C [Compound Z58]	+ +	> 10	–	–	–
COc1cccc(-c2ccc(C(=O)Nc3ccc(NC(=O)Nc4cc(C(C)(C)C)on4)cc3)o2)c1 [Compound N105]	+ + +	–	+ + + +	–	–
CC(C)(C)c1cc(NC(=O)Nc2ccc(C(=O)Nc3ccccc3)cc2)no1 [Compound N90]	+ + +	–	+ + + +	–	–
CC(C)(C)c1cc(NC(=O)Nc2ccc(NC(=O)c3cccc4nc5cc(O)cc(O)c5cc34)cc2)no1 [Compound N139]	+ + +	–	+ + +	–	–
CC(C)(C)c1cc(NC(=O)Nc2ccc(C(=O)Nc3ccc(Cl)cc3)cc2)no1 [Compound N156]	+ + +	–	+ + + +	–	–
COc1cc(NC(=O)c2cn3nc(Cl)ccc3n2)ccc1NC(=O)Nc1cc(C(C)(C)C)on1 [Compound N171]	+ + +	–	–	–	+ +
CC(C)(C)c1cc(NC(=O)Nc2ccc(NC(=O)CC(N)c3ccccc3Cl)cc2)no1 (centres unmarked) [Compound N44]	+ +	–	+ +	–	–
CC(C)(C)c1cc(NC(=O)Nc2ccc(NC(=O)C3=Cc4cc(F)cc(S(C)(=O)=O)c4C3)cc2)no1 [Compound N62]	+ + +	–	+ + + +	–	–
O=C(Nc1ccc(Cl)cc1)Nc1ccc(-n2nc(Br)c(Br)c2Br)cc1 [Compound Z49]	–	–	+ + +	–	–
Cc1ccc(-n2nc(C(C)(C)C)cc2NC(=O)Nc2ccc(O)cc2)cc1 [Compound H12]	–	–	+ + +	–	–
CC(C)(C)c1cc(NC(=O)Nc2ccccc2)no1 [Compound A34]	–	–	+ + +	–	–
CC(C)(C)c1cc(NC(=O)Nc2ccc(C(=O)O)cc2)no1 [Compound C2]	–	–	+ +	–	–
CC(C)(C)c1cc(NC(=O)Nc2ccc(OCC(O)CO)cc2)no1 (centres unmarked) [Compound G28]	–	–	+ + + +	–	–
COc1ccc(N(C)C(=O)Nc2cc(C(C)(C)C)on2)cc1 [Compound J10]	–	–	+ + +	–	–
COc1ccc(N(N)C(=O)Nc2cc(C(C)(C)C)on2)cc1 [Compound J14]	–	–	+ + +	–	–
O=C(Nc1cccc(Cl)c1)Nc1cc(C(F)(F)F)cc(Cl)n1 [Compound Z74]	–	–	+ + +	–	–
C[C@H](NC(=O)c1ccc(NC(=O)Nc2cc(C(C)(C)C)on2)cc1)c1ccccc1 [Compound N88]	–	–	+ + +	–	–
